The text below walks through data of patent US20230248702A1, “MICELLE COMPRISING BENZIMIDAZOLE-CARBOHYDRATE CONJUGATE COMPOUND, PREPARATION METHOD THEREOF AND USE THEREOF AS ANTICANCER AGENT OR ANTIVIRAL AGENT COMPRISING THE SAME” (BIOMETRIX TECHNOLOGY INC., priority 2021, published 2023).

Data set [1] deals with normal lung cell lines MRC-5. In words: Test for toxicity on normal cell lines (WST-8 cell viability assay). The note with it: rating relative to doxorubicin, 0-50 µM, incubated for 24 hours. The class given is cell-based. On the procedure:
Normal lung cell lines MRC-5 were distributed by Korean Cell Line Bank (KCLB, Seoul in Korea) and grown using a complete culture medium. Fetal bovine serum (FBS), 0.1 mM MEM nonessential amino acid (NEAA), 2 mM L-glutamine, and 1 % of penicillin-streptomycin were treated with trypsin every two-three days in a humidified cell culture incubator containing 5 % of CO2 at 37° C. by using DMEM and a 10 % culture flask according to guidelines provided by the KCLB, to subculture cells. The culture was incubated until it reached 80-90 % confluence, and the cells continuously moved to the culture flask for a test of inhibition of growth of cancer cell lines.
The normal cell lines (MRC-5) were seeded in 96-well plates at about 7,000 cells per well. […]
After the incubation, the culture medium was thrown away, and cell viability in each well was measured according to an instruction of the manufacturer, using a WST-8 cell viability assay kit (Quanti-MaxTM, BIOMAX).
The analysis used the principle that the dehydrogenase of living cells decomposes tetrazolium salt to generate formazan, and based on this, the living cells were quantitatively evaluated. Reduced formazan dye (formazan salt) is soluble in the cell culture medium, and the amount of formazan (formazan) was measured using the direct proportionality to the number of viable cells.

Data set [2] concerns cancer cell lines (pancreatic cancer cell line ASPC-1, lung cancer cell line A549, breast cancer cell line MCF-7, colorectal cancer cell line HCT 116). In words: Test for inhibition of growth of cancer cell lines (WST-8 cell viability assay). Format: cell-based, humans. As for the experimental part: Pancreatic cancer cell lines ASPC-1, lung cancer cell lines A549, breast cancer cell lines MCF-7, and colorectal cancer cell lines HCT 116 of humans were distributed by Korean Cell Line Bank (KCLB, Seoul in Korea) and grown using culture media. Fetal bovine serum (FBS), 0.1 mM MEM nonessential amino acid (NEAA), 2 mM L-glutamine, and 1 % of penicillin-streptomycin were treated with trypsin every two-three days in a humidified cell culture incubator containing 5 % of CO2 at 37° C. by using DMEM and a 10 % culture flask according to guidelines provided by the KCLB, to subculture cells. […] After 24 hours, each of the nine sorts of compounds in table 2 was added to the well under six concentration conditions and was incubated for 24 hours. After the incubation, the culture medium was thrown away, and cell viability in each well was measured according to an instruction of the manufacturer, using a WST-8 cell viability assay kit (Quanti-MaxTM, BIOMAX). The analysis used the principle that the dehydrogenase of living cells decomposes tetrazolium salt to generate formazan, and based on this, the living cells were quantitatively evaluated. Reduced formazan dye (formazan salt) is soluble in the cell culture medium, and the amount of formazan (formazan) was measured using the direct proportionality to the number of viable cells.

SMILES strings stand for the structures.

`CCCSc1ccc2nc(NC3O[C@H](CO)[C@@H](O)[C@H](O)[C@H]3O)[nH]c2c1` (stereo partly drawn) [Albendazole-glucose conjugate (Al-G), 6-(propylthio)-1H-benzoimidazol-2-aminoglucose]: the “Test for toxicity on normal cell line” value in data set [1] is listed as “AAA (an AAA rating denotes no toxicity (1/30 times or less))”. For the same molecule, in data set [2] (rating relative to doxorubicin, 0-50 µM, incubated for 24 hours), the “Test for inhibition of growth of cancer cell line” value is listed as “C (a C rating denotes a very weak quality (10 times or more))”.

In the case of `COc1cccc2c1C(=O)c1c(O)c3c(c(O)c1C2=O)C[C@@](O)(C(=O)CO)C[C@@H]3O[C@H]1C[C@H](N)[C@H](O)[C@H](C)O1` [doxorubicin, reference compound], the “total number of cancer cells remained within 24 hours” value in data set [2] (concentrations of Table 2 (0-50 µM), 24 hours) was at least 70%.
